The target of this assay is EGFR (Homo sapiens, UniProt P00533). In words: in vitro EGFR kinase assay (Promega Kinase-Glo luminescence, […] ATP). Format: biochemical. Background: Kinase-Glo reads ATP consumption through a luciferase reaction.
Chain of EGFR (P00533 25-1210): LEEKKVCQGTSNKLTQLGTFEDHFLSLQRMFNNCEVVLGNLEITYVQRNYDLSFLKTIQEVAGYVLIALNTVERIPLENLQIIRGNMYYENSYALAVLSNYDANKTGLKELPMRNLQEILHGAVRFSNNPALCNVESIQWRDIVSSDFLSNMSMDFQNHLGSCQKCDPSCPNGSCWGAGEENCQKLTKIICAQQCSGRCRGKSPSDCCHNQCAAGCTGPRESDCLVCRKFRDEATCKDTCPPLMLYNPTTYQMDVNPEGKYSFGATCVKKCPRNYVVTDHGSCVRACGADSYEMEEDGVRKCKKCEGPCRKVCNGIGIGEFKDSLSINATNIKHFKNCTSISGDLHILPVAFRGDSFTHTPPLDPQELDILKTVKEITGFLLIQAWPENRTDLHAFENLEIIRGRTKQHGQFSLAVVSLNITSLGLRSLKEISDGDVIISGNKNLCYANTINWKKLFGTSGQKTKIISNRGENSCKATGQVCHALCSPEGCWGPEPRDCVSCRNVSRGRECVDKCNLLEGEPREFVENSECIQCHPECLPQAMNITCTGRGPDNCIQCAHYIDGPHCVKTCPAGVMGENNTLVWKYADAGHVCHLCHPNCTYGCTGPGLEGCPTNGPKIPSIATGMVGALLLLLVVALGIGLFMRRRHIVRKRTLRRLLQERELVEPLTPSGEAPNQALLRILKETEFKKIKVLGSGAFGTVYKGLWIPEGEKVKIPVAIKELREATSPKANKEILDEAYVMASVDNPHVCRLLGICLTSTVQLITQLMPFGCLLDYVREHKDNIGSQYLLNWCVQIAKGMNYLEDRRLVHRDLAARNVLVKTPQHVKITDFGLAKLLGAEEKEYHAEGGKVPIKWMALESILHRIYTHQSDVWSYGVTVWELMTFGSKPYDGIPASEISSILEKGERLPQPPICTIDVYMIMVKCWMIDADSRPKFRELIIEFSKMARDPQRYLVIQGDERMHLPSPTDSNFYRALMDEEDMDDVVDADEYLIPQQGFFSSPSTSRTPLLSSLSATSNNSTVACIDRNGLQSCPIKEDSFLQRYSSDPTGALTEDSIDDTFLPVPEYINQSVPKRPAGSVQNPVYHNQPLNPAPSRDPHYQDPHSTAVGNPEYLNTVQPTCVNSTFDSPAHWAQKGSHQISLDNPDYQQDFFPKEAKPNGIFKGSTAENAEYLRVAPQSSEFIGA

Take `O=C(Cc1ccccc1)N1CCc2c([nH]c3ccc(F)cc23)C1` [compound 308, WB-308]: the IC50 – broadly, the midpoint of a concentration-inhibition curve – was about 43 nM.

(Values after paper PMC4466647, “Inhibition of non-small cell lung cancer (NSCLC) growth by a novel small molecular inhibitor of EGFR” (Oncotarget, 2015).)
